Reference: PMC10301896 (Pharmaceutics, 2023)
Counter-ions that a name gives are not always drawn.

Key:
[1] = Chelation with Al3+ ion in vitro (precipitation with AlCl3); format: physicochemical; conditions: drug 50 μM, pH 6.5, 30 min, 24 °C
Experimental: AlCl3 was also dissolved in the same buffer at a concentration of 50 μM, 100 μM, 200 μM, 1 mM, or 2 mM, and each drug solution and AlCl3 solution were mixed at an equal volume. The mixture solution was shaken, stood for 30 min at 24 °C and centrifuged. The supernatant was filtrated through a syringe filter with 0.22 μm of pore size (Millipore, Tokyo, Japan).

in vivo [2] = conditions: for AUC(0-t) / AUC(0-inf) / bioavailability / Cmax / Tmax: male, albino, rabbit, in vivo, po, 150 mg/kg, TC 150 mg/kg orally; for AUC(0-t): AUC0–6h; for AUC(0-inf): AUC0–∞; for bioavailability: Bioavailability (absolute oral)
Experimental: Rabbits were supplied solid food for rabbits (CR-3M, CLEA Japan, Inc., Tokyo, Japan), and the average amount of CR-3M that each rabbit ingested was 100–110 g/day. CR-3M contains various vitamins and cationic metals including Ca, Mg, and iron (Fe^2+, Fe^3+) in addition to various energy sources. […] Coprophagy was not prevented in control rabbits.
After administration orally by stomach intubation, blood samples (100 μL each) were taken periodically from the ear vein at 0.25, 0.5, 1, 2, 4 and 6 h. Blood samples were centrifuged at 3000× g for 10 min to obtain plasma samples.

[3] = control rabbits
in vivo [4] = conditions: male, albino, rabbit, iv, 10 mg/kg
[5] = cited from earlier work

For `CN(C)[C@@H]1C(O)=C(C(N)=O)C(=O)[C@@]2(O)C(O)=C3C(=O)c4c(O)cccc4[C@@](C)(O)[C@H]3C[C@@H]12` [TC, tetracycline hydrochloride], the “Precipitation (%)” value ([1]; AlCl3 25 μM) was 63.2 ± 21.3%, the “Precipitation (%)” value ([1]; AlCl3 50 μM) was 84.0 ± 13.9% and the “Precipitation (%)” value ([1]; AlCl3 100 μM) was 91.6 ± 7.3%. The “Precipitation (%)” value ([1]; AlCl3 500 μM) was 96.2 ± 5.7%, the “Precipitation (%)” value ([1]; AlCl3 1 mM) was 99.4 ± 1.19% and the “TC in plasma after oral administration” value (in vivo [2]; at a lower dose than 30 mg/kg, rabbits) was “not detected”. It also gave an AUC(0-t) (in vivo [2]; EDTA-treated rabbits) of 4680 ± 930 ng·h/mL, an AUC(0-t) (in vivo [2]; control rabbits) of 2540 ± 910 ng·h/mL and an AUC(0-inf) (in vivo [2]; EDTA-treated rabbits) of 6490 ± 1080 ng·h/mL. The AUC(0-inf) (in vivo [2]; control rabbits) was 3390 ± 1260 ng·h/mL, the bioavailability (in vivo [2]; EDTA-treated rabbits) was 4.9 ± 0.81% and the bioavailability (in vivo [2]; control rabbits) was 2.56 ± 0.95%. The Cmax (in vivo [2]; EDTA-treated rabbits) was 1120 ± 280 ng/mL, the Cmax (in vivo [2]; control rabbits) was 730 ± 220 ng/mL and the Tmax (in vivo [2]; EDTA-treated rabbits) was 2 h. For the same compound, the Tmax (in vivo [2]; control rabbits) was 1.67 ± 0.58 h, the β ([3]; […] iv infusion, LFX 20, CFX 30, TC 10 mg/kg) was 0.28 ± 0.10 h⁻¹ and the “Total plasma clearance (CLtotal), Doseiv/AUC0–∞” value ([3]; iv infusion) was 18.83 mL/min/kg. For the same compound, the AUC(0-t) (in vivo [4]) was 7570 ± 1380 ng·h/mL, the “Oral bioavailabilities in humans” value ([5]; LFX 200–750 mg, CFX 200–1000 mg, TC 250 mg, ref references listed in the discussion section) was 77–88% (250 mg) and the Absolute oral bioavailability ([5]; humans, dose of 250 mg) was 77–88%.
